Holding throughout (assay): relative viability (nuclei count vs DMSO), 5 days (fraction); higher = more cells survive
Compound in assay [1]: O=C(CCCCCCNC(=O)c1cnc(N(c2ccccc2)c2ccccc2)nc1)NO [Ricolinostat] + CS(=O)(=O)N1CCN(Cc2cc3nc(-c4cccc5[nH]ncc45)nc(N4CCOCC4)c3s2)CC1 [Pictilisib] (partner 1 µM)
The essentials: (§1)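 One day after seeding in 1536-well plates, lung cancer cell lines were dosed by pin tool. Dosing was either single-drug or a fixed anchor-drug dose plus five library-drug doses (not always all listed) in √10 steps. After 5 days, nuclei were stained in one fix-and-stain step and counted on 4× images, and relative viability is the nuclei count of treated wells over that of vehicle wells, given as the median of duplicate plates.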

Compound in assay [2]: C1=CC=C(C(=C1)C2=CC=C(C=C2)C3=CSC4=C3C(=C(C(=O)N4)C#N)O)O + Cc1cc(Nc2cc(N3CCN(C)CC3)nc(Sc3ccc(NC(=O)C4CC4)cc3)n2)n[nH]1 [Tozasertib] (partner 0.1 µM)
Summed up: as §1

Compound in the assay “TGX 221 + OSI-027”: CC1=CN2C(=O)C=C(N=C2C(=C1)C(C)NC3=CC=CC=C3)N4CCOCC4 [TGX 221] + COc1cccc2cc(-c3nc([C@H]4CC[C@H](C(=O)O)CC4)n4ncnc(N)c34)[nH]c12 [OSI-027] (partner 0.5 µM)
The essentials: as §1

Compound in assay [3]: O=C(CCCCCCNC(=O)c1cnc(N(c2ccccc2)c2ccccc2)nc1)NO [Ricolinostat] + O=C(CCCCCCC(=O)Nc1ccccc1)NO [Vorinostat] (partner 1 µM)
Summed up: as §1

Take EKVX: the relative viability in assay [1] (first compound 0.253 µM) came out at 0.444; in assay [1] (first compound 0.8 µM), 0.456; in assay [1] (first compound 2.53 µM), 0.378; in assay [2] (first compound 0.08 µM), 0.519; in assay [2] (first compound 0.253 µM) it was 0.484; in assay [2] (first compound 0.8 µM) it was 0.349. Moreover, the relative viability was 0.546 in assay [2] (first compound 2.53 µM); 0.336 in assay [2] (first compound 8 µM); 0.697 in the assay with TGX 221 + OSI-027 (first compound 0.08 µM); 0.708 in the assay with TGX 221 + OSI-027 (first compound 0.253 µM); 0.698 with TGX 221 + OSI-027 (first compound 0.8 µM); 0.687 with TGX 221 + OSI-027 (first compound 2.53 µM). For the same cell line, the relative viability stood at 0.672 in the assay with TGX 221 + OSI-027 (first compound 8 µM); 0.617 in assay [3] (first compound 0.08 µM); 0.724 in assay [3] (first compound 0.253 µM); 0.62 in assay [3] (first compound 0.8 µM); 0.74 in assay [3] (first compound 2.53 µM).
As to HARA, the relative viability in assay [1] (first compound 0.08 µM) amounted to 0.208; in assay [1] (first compound 0.253 µM), 0.481; in assay [1] (first compound 0.8 µM), 0.503; in assay [1] (first compound 2.53 µM), 0.203; in assay [2] (first compound 0.08 µM), 0.117; in assay [2] (first compound 0.253 µM), 0.106. In addition, the relative viability was determined as 0.49 in assay [2] (first compound 0.8 µM); 0.104 in assay [2] (first compound 2.53 µM); 0.101 in assay [2] (first compound 8 µM); 0.447 with TGX 221 + OSI-027 (first compound 0.08 µM); 0.493 with TGX 221 + OSI-027 (first compound 0.253 µM); 0.526 with TGX 221 + OSI-027 (first compound 0.8 µM). For the same cell line, the relative viability with TGX 221 + OSI-027 (first compound 2.53 µM) amounted to 0.501; with TGX 221 + OSI-027 (first compound 8 µM), 0.471; in assay [3] (first compound 0.08 µM), 0.496; in assay [3] (first compound 0.253 µM), 0.446; in assay [3] (first compound 0.8 µM), 0.377; in assay [3] (first compound 2.53 µM), 0.373.
With A-427, the relative viability in assay [1] (first compound 0.08 µM) stood at 0.626; in assay [1] (first compound 0.253 µM), 0.722; in assay [1] (first compound 0.8 µM), 0.781; in assay [1] (first compound 2.53 µM) it was 0.757; in assay [2] (first compound 0.08 µM), 0.188; in assay [2] (first compound 0.253 µM), 0.209. Besides, the relative viability in assay [2] (first compound 0.8 µM) is 0.248; in assay [2] (first compound 2.53 µM), 0.224; in assay [2] (first compound 8 µM) it was 0.215; with TGX 221 + OSI-027 (first compound 0.08 µM), 0.53; with TGX 221 + OSI-027 (first compound 0.253 µM) it was 0.491; with TGX 221 + OSI-027 (first compound 0.8 µM), 0.506. Further, the relative viability in the assay with TGX 221 + OSI-027 (first compound 2.53 µM) came out at 0.473; with TGX 221 + OSI-027 (first compound 8 µM), 0.448; in assay [3] (first compound 0.08 µM) it was 0.789; in assay [3] (first compound 0.253 µM) it was 0.789; in assay [3] (first compound 0.8 µM), 0.624; in assay [3] (first compound 2.53 µM), 0.752.
Regarding NCI-H2087, the relative viability in assay [1] (first compound 0.08 µM) came out at 0.806; in assay [1] (first compound 0.253 µM) it was 0.828; in assay [1] (first compound 0.8 µM) it was 0.867; in assay [1] (first compound 2.53 µM), 0.87; in assay [2] (first compound 0.08 µM), 0.213; in assay [2] (first compound 0.253 µM) it was 0.258. Further, the relative viability in assay [2] (first compound 0.8 µM) amounted to 0.225; in assay [2] (first compound 2.53 µM) it was 0.244; in assay [2] (first compound 8 µM), 0.2; with TGX 221 + OSI-027 (first compound 0.08 µM) it was 0.579; with TGX 221 + OSI-027 (first compound 0.253 µM), 0.481; in the assay with TGX 221 + OSI-027 (first compound 0.8 µM) it was 0.574. Further, the relative viability stood at 0.465 in the assay with TGX 221 + OSI-027 (first compound 2.53 µM); 0.622 in the assay with TGX 221 + OSI-027 (first compound 8 µM); 0.398 in assay [3] (first compound 0.08 µM); 0.42 in assay [3] (first compound 0.253 µM); 0.728 in assay [3] (first compound 0.8 µM); 0.193 in assay [3] (first compound 2.53 µM).
Regarding NCI-H460, the relative viability in assay [1] (first compound 0.08 µM) is 0.332; in assay [1] (first compound 0.253 µM) it was 0.393; in assay [1] (first compound 0.8 µM), 0.308; in assay [1] (first compound 2.53 µM), 0.269; in assay [2] (first compound 0.08 µM), 0.395; in assay [2] (first compound 0.253 µM), 0.429. The relative viability came out at 0.345 in assay [2] (first compound 0.8 µM); 0.461 in assay [2] (first compound 2.53 µM); 0.296 in assay [2] (first compound 8 µM); 0.666 with TGX 221 + OSI-027 (first compound 0.08 µM); 0.566 with TGX 221 + OSI-027 (first compound 0.253 µM); 0.713 with TGX 221 + OSI-027 (first compound 0.8 µM). The relative viability with TGX 221 + OSI-027 (first compound 2.53 µM) is 0.56; with TGX 221 + OSI-027 (first compound 8 µM), 0.504; in assay [3] (first compound 0.08 µM) it was 0.594; in assay [3] (first compound 0.253 µM) it was 0.677; in assay [3] (first compound 0.8 µM), 0.573; in assay [3] (first compound 2.53 µM) it was 0.194.
PC-14: the relative viability is 0.536 in assay [1] (first compound 0.08 µM); 0.681 in assay [1] (first compound 0.253 µM); 0.653 in assay [1] (first compound 0.8 µM); 0.321 in assay [1] (first compound 2.53 µM); 0.63 in assay [2] (first compound 0.08 µM); 0.753 in assay [2] (first compound 0.253 µM). Also, the relative viability worked out at 0.542 in assay [2] (first compound 0.8 µM); 0.556 in assay [2] (first compound 2.53 µM); 0.436 in assay [2] (first compound 8 µM); 0.707 with TGX 221 + OSI-027 (first compound 0.08 µM); 0.791 in the assay with TGX 221 + OSI-027 (first compound 0.253 µM); 0.908 with TGX 221 + OSI-027 (first compound 0.8 µM). For the same cell line, the relative viability with TGX 221 + OSI-027 (first compound 2.53 µM) turned out to be 1.05; with TGX 221 + OSI-027 (first compound 8 µM), 0.654; in assay [3] (first compound 0.08 µM), 0.576; in assay [3] (first compound 0.253 µM) it was 0.691; in assay [3] (first compound 0.8 µM), 0.593; in assay [3] (first compound 2.53 µM), 0.396.
Turning to NCI-H2009, the relative viability stood at 0.498 in assay [1] (first compound 0.08 µM); 0.829 in assay [1] (first compound 0.253 µM); 0.757 in assay [1] (first compound 0.8 µM); 0.85 in assay [1] (first compound 2.53 µM); 0.789 in assay [2] (first compound 0.08 µM); 0.706 in assay [2] (first compound 0.253 µM). The relative viability in assay [2] (first compound 0.8 µM) worked out at 0.719; in assay [2] (first compound 2.53 µM) it was 0.73; in assay [2] (first compound 8 µM), 0.683; with TGX 221 + OSI-027 (first compound 0.08 µM), 0.543; in the assay with TGX 221 + OSI-027 (first compound 0.253 µM), 0.583; with TGX 221 + OSI-027 (first compound 0.8 µM) it was 0.574. The relative viability in the assay with TGX 221 + OSI-027 (first compound 2.53 µM) was found to be 0.569; with TGX 221 + OSI-027 (first compound 8 µM) it was 0.49; in assay [3] (first compound 0.08 µM) it was 0.614; in assay [3] (first compound 0.253 µM) it was 0.68; in assay [3] (first compound 0.8 µM) it was 0.711; in assay [3] (first compound 2.53 µM) it was 0.53.
With COR-L 105, the relative viability is 0.367 in assay [1] (first compound 0.08 µM); 0.412 in assay [1] (first compound 0.253 µM); 0.485 in assay [1] (first compound 0.8 µM); 0.279 in assay [1] (first compound 2.53 µM); 0.386 in assay [2] (first compound 0.08 µM); 0.341 in assay [2] (first compound 0.253 µM). In addition, the relative viability stood at 0.358 in assay [2] (first compound 0.8 µM); 0.383 in assay [2] (first compound 2.53 µM); 0.379 in assay [2] (first compound 8 µM); 0.793 with TGX 221 + OSI-027 (first compound 0.08 µM); 0.612 with TGX 221 + OSI-027 (first compound 0.253 µM); 0.759 with TGX 221 + OSI-027 (first compound 0.8 µM). Moreover, the relative viability with TGX 221 + OSI-027 (first compound 2.53 µM) was found to be 1.03; with TGX 221 + OSI-027 (first compound 8 µM) it was 0.627; in assay [3] (first compound 0.08 µM), 0.794; in assay [3] (first compound 0.253 µM), 0.825; in assay [3] (first compound 0.8 µM), 0.643; in assay [3] (first compound 2.53 µM), 0.7.

Source of the values: the supplement of paper PMC10307832.
